# Test results published in the supplement of paper PMC10307832.
# Tests used:
# Assay in all cases: relative viability (nuclei count vs DMSO), 5 days (fraction); higher = more cells survive
# NCI-H1651 = tested on: NCI-H1651
# Method in brief: (§1)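 For relative viability, nuclei counts in treated wells were divided by those in vehicle wells. Lung cancer cell lines had been pin-tool dosed in 1536-well plates the day after seeding and cultured for 5 days, then fixed and stained in one step (final 0.05% Triton X-100, 1% formaldehyde, 1 ug/ml Hoechst) and imaged at 4×. Doses were one drug alone or a fixed anchor-drug dose plus five library-drug doses (not always all listed) in √10 steps, and values are duplicate-plate medians.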
# LCLC-97TM1 = tested on: LCLC-97TM1
# Method in brief: as §1
# NCI-H1993 = tested on: NCI-H1993
# Method in brief: as §1
# NCI-H650 = tested on: NCI-H650
# Method in brief: as §1
# UMC-11 = tested on: UMC-11
# Method in brief: as §1
# NCI-H2085 = tested on: NCI-H2085
# Method in brief: as §1
# HCC-827 = tested on: HCC-827
# Method in brief: as §1
# HCC-44 = tested on: HCC-44
# Method in brief: as §1
# LCLC-103H = tested on: LCLC-103H
# Method in brief: as §1
# SK-MES-1 = tested on: SK-MES-1
# Method in brief: as §1
# ChaGo-K-1 = tested on: ChaGo-K-1
# Method in brief: as §1
# NCI-H1793 = tested on: NCI-H1793
# Method in brief: as §1
structure (smiles),measurement,setting,value
Clc1ccc(Nc2nnc(Cc3ccncc3)c3ccccc23)cc1 [Vatalanib] + COc1cccc2cc(-c3nc([C@H]4CC[C@H](C(=O)O)CC4)n4ncnc(N)c34)[nH]c12 [OSI-027] (partner 0.5 µM),relative viability,NCI-H1651; first compound 0.04 µM,0.751
same,relative viability,NCI-H1651; first compound 0.1265 µM,0.723
same,relative viability,NCI-H1651; first compound 0.4 µM,0.662
same,relative viability,NCI-H1651; first compound 1.265 µM,0.644
same,relative viability,NCI-H1651; first compound 4 µM,0.615
same,relative viability,LCLC-97TM1; first compound 0.04 µM,0.45
same,relative viability,LCLC-97TM1; first compound 0.1265 µM,0.398
same,relative viability,LCLC-97TM1; first compound 0.4 µM,0.552
same,relative viability,LCLC-97TM1; first compound 1.265 µM,0.531
same,relative viability,LCLC-97TM1; first compound 4 µM,0.42
same,relative viability,NCI-H1993; first compound 0.04 µM,0.55
same,relative viability,NCI-H1993; first compound 0.1265 µM,0.558
same,relative viability,NCI-H1993; first compound 0.4 µM,0.554
same,relative viability,NCI-H1993; first compound 1.265 µM,0.594
same,relative viability,NCI-H1993; first compound 4 µM,0.58
same,relative viability,NCI-H650; first compound 0.04 µM,0.627
same,relative viability,NCI-H650; first compound 0.1265 µM,0.49
same,relative viability,NCI-H650; first compound 1.265 µM,0.491
same,relative viability,NCI-H650; first compound 4 µM,0.523
same,relative viability,UMC-11; first compound 0.04 µM,0.461
same,relative viability,UMC-11; first compound 0.1265 µM,0.487
same,relative viability,UMC-11; first compound 0.4 µM,0.44
same,relative viability,UMC-11; first compound 1.265 µM,0.433
same,relative viability,UMC-11; first compound 4 µM,0.518
same,relative viability,NCI-H2085; first compound 0.04 µM,0.685
same,relative viability,NCI-H2085; first compound 0.1265 µM,0.819
same,relative viability,NCI-H2085; first compound 0.4 µM,0.883
same,relative viability,NCI-H2085; first compound 1.265 µM,0.697
same,relative viability,NCI-H2085; first compound 4 µM,0.544
same,relative viability,HCC-827; first compound 0.04 µM,0.818
same,relative viability,HCC-827; first compound 0.1265 µM,0.729
same,relative viability,HCC-827; first compound 0.4 µM,0.739
same,relative viability,HCC-827; first compound 1.265 µM,0.744
same,relative viability,HCC-827; first compound 4 µM,0.705
same,relative viability,HCC-44; first compound 0.04 µM,0.524
same,relative viability,HCC-44; first compound 0.1265 µM,0.652
same,relative viability,HCC-44; first compound 0.4 µM,0.438
same,relative viability,HCC-44; first compound 1.265 µM,0.439
same,relative viability,HCC-44; first compound 4 µM,0.355
same,relative viability,LCLC-103H; first compound 0.04 µM,0.496
same,relative viability,LCLC-103H; first compound 0.1265 µM,0.412
same,relative viability,LCLC-103H; first compound 0.4 µM,0.55
same,relative viability,LCLC-103H; first compound 1.265 µM,0.503
same,relative viability,LCLC-103H; first compound 4 µM,0.457
same,relative viability,SK-MES-1; first compound 0.04 µM,0.634
same,relative viability,SK-MES-1; first compound 0.1265 µM,0.588
same,relative viability,SK-MES-1; first compound 0.4 µM,0.77
same,relative viability,SK-MES-1; first compound 1.265 µM,0.578
same,relative viability,SK-MES-1; first compound 4 µM,0.575
same,relative viability,ChaGo-K-1; first compound 0.04 µM,0.589
same,relative viability,ChaGo-K-1; first compound 0.1265 µM,0.548
same,relative viability,ChaGo-K-1; first compound 0.4 µM,0.622
same,relative viability,ChaGo-K-1; first compound 1.265 µM,0.5
same,relative viability,ChaGo-K-1; first compound 4 µM,0.594
same,relative viability,NCI-H1793; first compound 0.04 µM,0.268
same,relative viability,NCI-H1793; first compound 0.1265 µM,0.226
same,relative viability,NCI-H1793; first compound 0.4 µM,0.309
same,relative viability,NCI-H1793; first compound 1.265 µM,0.217
same,relative viability,NCI-H1793; first compound 4 µM,0.184
